88 molecules from PubChem BioAssay AID1645864 (Buhrlage Lab, Dana-Farber Cancer Institute and Novartis …, 2021) can be followed below.

Calls of active or inactive are those of the source.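 How the source made its calls: active means maximal inhibition of USP17 at or above 30% in the confirmation dose-response, a value not among the printed readouts; inactive means the rest.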

The target of the assay is Ubiquitin carboxyl-terminal hydrolase 17-like protein 5 (Homo sapiens) (UniProt A8MUK1). In words: ubiquitin-specific protease 17 DUB inhibitors, concentration-effect assay, cell-free, verification of initial screening actives (AID 1645864). The following applies: purified USP17, ubiquitin-rhodamine cleavage fluorescence, 3 h.
Chain of Ubiquitin carboxyl-terminal hydrolase 17-like protein 5 (Homo sapiens) (A8MUK1 whole entry, looked up): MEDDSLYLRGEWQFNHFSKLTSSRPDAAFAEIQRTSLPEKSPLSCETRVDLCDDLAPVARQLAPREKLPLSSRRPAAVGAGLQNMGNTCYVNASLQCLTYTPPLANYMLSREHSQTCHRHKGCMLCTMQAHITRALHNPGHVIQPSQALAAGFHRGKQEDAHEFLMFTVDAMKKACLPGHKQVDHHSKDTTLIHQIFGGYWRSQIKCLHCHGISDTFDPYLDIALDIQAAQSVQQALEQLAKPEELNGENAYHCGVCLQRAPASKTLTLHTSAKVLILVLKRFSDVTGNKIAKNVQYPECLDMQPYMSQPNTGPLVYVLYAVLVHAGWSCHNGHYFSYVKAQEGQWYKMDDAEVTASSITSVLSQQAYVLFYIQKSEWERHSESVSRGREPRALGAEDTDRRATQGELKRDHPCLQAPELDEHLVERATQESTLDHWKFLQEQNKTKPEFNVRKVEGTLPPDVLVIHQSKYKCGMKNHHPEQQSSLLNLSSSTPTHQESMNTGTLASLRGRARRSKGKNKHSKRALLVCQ
The IC50 is the point on the concentration scale where inhibition reaches its midpoint. As to `Cc1nc(Nc2ncc(C)s2)cc(C2CN(C(=O)Cc3ccccc3)CCO2)n1` (stereo not drawn), the IC50 was > 50 µM (inactive).

Turning to `COc1cccc2c1OCC(C(=O)NCc1ccc(F)cc1)=C2`, the IC50 is > 50 µM (inactive).

In the case of `O=[N+]([O-])c1ccc(NCc2ccc(-c3cccs3)s2)nc1`, the half-inhibitory concentration (IC50) was 39.1 µM.

As for `Cc1cc(C(=O)N2CCOCC2)c(C)n1-c1ccc(O)cc1`, the IC50 is 23.9 µM.

`O=C(COC(=O)c1ccc(Cl)cc1)Nc1ccc2[nH]c(=O)[nH]c2c1`: the IC50 is 9.91 µM.

Regarding `Cc1nn(-c2cc(N3CCOCC3)ncn2)c(C)c1CCC(=O)Nc1ccc(C(C)C)cc1`, the IC50 was 29.1 µM.

On to `O=C(CCSc1ccc(Cl)cc1)c1cccs1`, for which the IC50 was 17.1 µM.

Consider `Cc1cc(C)c2cc(C(=O)NC3CCN(Cc4ccccc4)CC3)[nH]c2c1`, for which the half-maximal inhibitory concentration (IC50) was 14.7 µM.

As for `COc1ccc(-c2cc(C(=O)NC3CCCCCC3)[nH]n2)cc1S(=O)(=O)N(C)C`, the IC50 is 44.5 µM.

With `Fc1cccc(Cn2cc(-c3noc(-c4ccncc4)n3)nn2)c1`, the IC50 was 28.7 µM.

For `O=C(Cc1cc(-c2ccccc2)on1)NCc1c(F)cccc1F`, the half-maximal inhibitory concentration (IC50) is 28.1 µM.

As to `CC(C)(C)C(=O)C1C2C(=O)N(Cc3ccccc3)C(=O)C2C2c3ccccc3C=CN12` (stereo not drawn), the IC50 was > 50 µM (inactive).

With `CC(C)NS(=O)(=O)c1ccc(OCC(=O)N2CCC(Cc3ccccc3)CC2)cc1`, the IC50 is > 50 µM (inactive).

For the molecule `COc1ccccc1-c1nc2c3c(ncn2n1)Oc1c(c(C)nn1-c1ccccc1)C3c1cccnc1` (stereo not drawn), the half-inhibitory concentration (IC50) is 5.68 µM.

Regarding `O=S(=O)(c1ccccc1Cl)N1CCN(c2ccc3nnc(-c4ccco4)n3n2)CC1`, the IC50 is > 50 µM (inactive).

Regarding `CC1(C)Cc2c(c(-c3ccco3)nc3sc4c(SCCCc5ccccc5)ncnc4c23)CO1`, the 50% inhibitory concentration (IC50) is 34.4 µM.

With `Cc1cc2nc(Oc3cccc(Cl)c3)c3ccccc3n2n1`, the concentration for half-maximal inhibition (IC50) is 1.91 µM.

As to `COc1ccccc1-c1ccc(SCC(=O)Nc2ccc3c(c2)OCCO3)nn1`, the IC50 is > 50 µM (inactive).

As to `CCc1ccc(Nc2cc(C(=O)NCCCOC(C)C)c3ccccc3n2)cc1`, the IC50 was 10.7 µM.

In the case of `COc1ccc(C(=O)Nc2ccc3c(c2)C(=O)N(C)c2ccccc2O3)cc1`, the IC50 was > 50 µM (inactive).

As for `Cc1cc(C(=O)Nc2cc(C)n(Cc3ccc(Cl)cc3)n2)no1`, the IC50 is > 50 µM (inactive).

Take `O=C1CN(C(=O)COC(=O)CCCN2C(=O)c3cccc4cccc(c34)C2=O)c2ccccc2N1`: the IC50 is 49.3 µM.

In the case of `O=C(CN1C(=O)c2ccccc2Sc2ccc(C(=O)N3CCCC3)cc21)Nc1ccccc1Cl`, the concentration for half-maximal inhibition (IC50) was 34.1 µM.

With `Oc1ccc(-c2nc3ccc(Cl)cn3c2NC2CCCCC2)cc1`, the concentration for half-maximal inhibition (IC50) is 15.2 µM.

Turning to `Cn1c2ccccc2c(=O)c2c(=O)n(Cc3ccccc3)c(-c3ccco3)nc21`, the IC50 was 1.55 µM.

`CC(C)Oc1ccc(C(=O)Nc2cccc(S(=O)(=O)N3CCCC3)c2)cc1`: the IC50 is > 50 µM (inactive).

`CCOC(=O)c1ccc(NC(=O)Cn2c(=O)n(CC(=O)NCc3ccco3)c(=O)c3ccccc32)cc1`: the IC50 was 2.89 µM.

On to `O=C(CCCn1c(=O)c2ccccc2n(CC(=O)NCc2ccccc2Cl)c1=O)NCc1ccc2c(c1)OCO2`, for which the 50% inhibitory concentration (IC50) is 2.2 µM.

Turning to `COCCCNC(=O)Cn1c(=O)n(Cc2ccc(C(=O)NCc3ccccc3OC)cc2)c(=O)c2ccccc21`, the IC50 is > 50 µM (inactive).

On to `Cc1cccc(NC(=O)c2nn(C)c3ccccc3c2=O)c1`, for which the concentration for half-maximal inhibition (IC50) was 27.1 µM.

As to `Cc1c(Cl)cccc1NC(=O)Cn1c(=O)c2ccccc2n2nncc12`, the IC50 is > 50 µM (inactive).

`O=C(NC1CCN(Cc2ccccc2)CC1)c1[nH]nc2c1CCc1ccccc1-2`: the IC50 was > 50 µM (inactive).

Consider `O=C(Nc1ccccc1)c1cn2c3c(cccc3c1=O)CC2`, for which the IC50 is 26.9 µM.

In the case of `Cc1cc(C#N)c2c(C)ccc(C(C)C)cc1-2`, the IC50 is > 50 µM (inactive).

On to `COc1ccc(OC)c(NC(=O)CSc2nc(C)nc3c2oc2ccccc23)c1`, for which the IC50 was 2.54 µM.

Take `Cc1c(C(=O)c2ccccc2)c2ccccn2c1CCc1ccccn1`: the IC50 was > 50 µM (inactive).

Take `COc1ccc2c(c1)c(N1CCCC1=O)c(C(=O)NCc1cccc(OC)c1OC)n2C`: the IC50 was > 50 µM (inactive).

In the case of `CCCc1nc2sc3c(NCCCN4CCOCC4)ncnc3c2c2c1CCC2`, the IC50 was > 50 µM (inactive).

With `COc1cc(C(=O)Nc2ccc(-c3csc(C)n3)cc2)cc(OC)c1OC`, the IC50 was > 50 µM (inactive).

On to `O=C(NCc1ccc2c(c1)OCO2)c1nn(C23CC4CC(CC(C4)C2)C3)cc1[N+](=O)[O-]`, for which the IC50 was > 50 µM (inactive).

In the case of `O=C(NCc1ccc(F)cc1)C1CCCN(c2cnc3nccnc3c2)C1` (stereo not drawn), the IC50 was > 50 µM (inactive).

Take `O=c1[nH]c2ccc(S(=O)(=O)Nc3ccc(O)c4ccccc34)cc2[nH]1`: the half-inhibitory concentration (IC50) was 4.09 µM.

For the molecule `Cc1cccc(Cl)c1NC(=O)Nc1ccc(NC(=O)c2ccccc2O)cc1`, the half-inhibitory concentration (IC50) was 35.4 µM.

Consider `c1ccc2c(c1)ccc1nnc(-c3ccc4c(c3)OCO4)n12`, for which the IC50 was > 50 µM (inactive).

For `CCN(CC)C(=O)CN1CCCC(c2ncncc2-c2cc(C)no2)C1` (stereo not drawn), the IC50 was > 50 µM (inactive).

As for `Cc1cccc(O)c1-c1nc2c(-c3nc4c(C(=O)O)cccc4o3)cccc2o1`, the IC50 is > 50 µM (inactive).

Regarding `CCn1c(Cn2cccn2)nc2cc(NC(=O)c3ccc(F)cc3)ccc21`, the IC50 is > 50 µM (inactive).

With `Cc1cc(O)c2c3c(c(O)c4c(c13)O[C@@H](C)C4(C)C)C(=O)C2=O`, the half-maximal inhibitory concentration (IC50) is 24.5 µM.

As for `COc1cccc(-c2nc3cnccn3c2NCc2ccc3c(c2)OCO3)c1`, the IC50 was > 50 µM (inactive).

For the molecule `Cc1ccccc1NC(=O)Cn1c(N2CCOCC2)nc2cc(C)n(C)c2c1=O`, the IC50 was 25.8 µM.

For `COc1cc(-c2ccno2)ccc1S(=O)(=O)Nc1ccccc1Cl`, the IC50 is > 50 µM (inactive).

In the case of `O=C(NCc1ccc(Cl)cc1)c1ccc(N2CCCS2(=O)=O)cc1`, the IC50 is > 50 µM (inactive).

Turning to `COc1cccc(Cn2nc3n(CC(C)C)c(=O)c4ccc(C(=O)NCC(C)C)cc4n3c2=O)c1`, the IC50 is 6.84 µM.

`N#Cc1ccc(-c2ccc(OCC(=O)Nc3ccc4c(c3)OCO4)cc2)cc1`: the 50% inhibitory concentration (IC50) is 2.48 µM.

With `Cc1c(-c2nsc(NC(=O)c3ccc(Cl)cc3)n2)nnn1-c1ccccc1F`, the IC50 was 0.674 µM.

Take `Cn1c(=O)c2c(ncn2CC(=O)NC2CCCc3ccccc32)n(C)c1=O` (stereo not drawn): the IC50 is > 50 µM (inactive).

Turning to `Cc1ccc2cc(CCNC(=O)c3cccc(Br)c3)c(=O)[nH]c2c1`, the IC50 is 38.9 µM.

Take `Cc1nc(-c2ccc(C(=O)NCc3ccc(F)cc3)cc2)cs1`: the half-maximal inhibitory concentration (IC50) is 48.1 µM.

`COc1ccccc1NC(=O)Nc1ccc(NC(=O)c2ccccc2O)cc1`: the IC50 is 47.5 µM.

Regarding `CCc1nc2cc(NC(=O)c3cccc(N4CCCC4=O)c3)ccc2n1C`, the IC50 is > 50 µM (inactive).

As to `COc1cccc(CNC(=O)C2=Cc3cccc(OC)c3OC2)c1`, the IC50 was > 50 µM (inactive).

Turning to `COc1ccc(OC)c(NC(=O)c2cc(Cl)ccc2OC)c1`, the half-inhibitory concentration (IC50) is 2.53 µM.

Regarding `O=C(/C=C/c1ccc(F)cc1)N1CCc2ccccc2C1`, the IC50 is 37.3 µM.

For `Cc1nnc(C(=O)Nc2ccc(C(=O)NCc3ccccc3C)cc2)s1`, the IC50 was 27.2 µM.

In the case of `CNC(=O)CC1NC(=O)c2csc(n2)-c2ccc(-c3nc(C4=NC(C(=O)N5CCCC5C(N)=O)CO4)cs3)nc2-c2csc(n2)-c2csc(n2)C(C(O)c2ccccc2)NC(=O)CNC(=O)c2nc(sc2COC)C(C(C)C)NC(=O)c2nc1sc2C` (stereo not drawn), the IC50 was 29.6 µM.

On to `CC(C)CC1NC(=O)C2CCCN2C1=O` (stereo not drawn), for which the half-inhibitory concentration (IC50) was 37.5 µM.

Take `Cc1cccc(C(=O)OCC(=O)Nc2ccc3[nH]c(=O)[nH]c3c2)c1C`: the 50% inhibitory concentration (IC50) was 4.32 µM.

On to `Cc1ccccc1C(=O)Nc1ccc(Cc2ccc(NC(=O)c3ccccc3C)c(O)c2)cc1O`, for which the IC50 was > 50 µM (inactive).

In the case of `CCn1c(SCC(=O)c2c(N)n(CC(C)C)c(=O)n(C)c2=O)nnc1-c1ccccc1`, the concentration for half-maximal inhibition (IC50) is 16 µM.

In the case of `CN1C(=O)[C@@]23C[C@]4([C@@]56C[C@]78SS[C@](CO)(C(=O)N7[C@@H]5Nc5ccccc56)N(C)C8=O)c5ccccc5N[C@@H]4N2C(=O)[C@]1(CO)SS3`, the IC50 was > 50 µM (inactive).

In the case of `Cn1ncc2c(=O)n(Cc3cccc(Cl)c3)cnc21`, the IC50 is > 50 µM (inactive).

For `O=c1[nH]c(-c2ccccn2)nc2c1CCN(Cc1cnn(-c3ccccc3)c1)C2`, the IC50 is > 50 µM (inactive).

`O=C(c1ccco1)N1CCCC2(C1)Nc1cccnc1NC2=NC1CCCC1` (stereo not drawn): the IC50 is > 50 µM (inactive).

Regarding `COc1ccc2nc(Nc3nc(-c4cnc(N5CCOCC5)nc4C)cc(=O)[nH]3)nc(C)c2c1`, the IC50 is > 50 µM (inactive).

Take `COCCNC(=O)c1ccn(-c2ccc3ccc(-c4ccncc4)cn23)n1`: the IC50 was > 50 µM (inactive).

Regarding `O=c1c2cnc3nc(-c4cccnc4)nn3c2ccn1CCc1ccccc1`, the IC50 was > 50 µM (inactive).

As to `C=Cc1ccc(Cn2cc(S(=O)(=O)N3CCOCC3)ccc2=O)cc1`, the IC50 is 40.6 µM.

`Cn1c(=O)[nH]c(=O)c2c1nc1n(CCc3ccccc3)c(-c3ccccc3)cn21`: the IC50 was 33.1 µM.

In the case of `Cc1cnc2nc3c(cc2c1)CN(CCc1ccc(Cl)cc1)CC3`, the IC50 is > 50 µM (inactive).

As to `Cc1ccc(C)c(S(=O)(=O)N2CCC3(CC2)NC(=O)c2ccccc2N3)c1`, the IC50 is 46.1 µM.

On to `O=C1CC(C(=O)Nc2ccc(F)cc2)n2nc(SCc3ccccc3)nc2N1` (stereo not drawn), for which the IC50 was 38.3 µM.

Consider `O=C(Cc1c[nH]c2ccccc12)Nc1nc2ccccc2s1`, for which the IC50 is > 50 µM (inactive).

With `Cc1noc(NS(=O)(=O)c2ccc(NC(=O)CSc3ccc4ccccc4c3)cc2)c1C`, the IC50 is > 50 µM (inactive).

With `COc1ccc2c(c1)CCc1c-2n[nH]c1C(=O)Nc1cc(C)on1`, the IC50 was 4.67 µM.

Regarding `N#Cc1cn(CC(=O)N2CCc3ccccc32)c2ccccc12`, the concentration for half-maximal inhibition (IC50) was 47.4 µM.

Regarding `Cc1ccn(-c2ccc(NC(=O)c3ccccc3Sc3ccccc3C#N)cc2)n1`, the IC50 is 44.7 µM.

Consider `COc1ccc(NC(=O)Cn2c(CS(=O)(=O)c3ccc(C)cc3)nc3ccccc32)cc1`, for which the IC50 is 6.52 µM.

With `COc1ccc(NC(=O)C2c3ccccc3C(=O)N(C3CCCC3)C2c2cccs2)cc1OC` (stereo not drawn), the 50% inhibitory concentration (IC50) was 47.1 µM.
